# Measured values as given in article PMC7144106, “The Evolution of Pleconaril: Modified O-Alkyl Linker Analogs Have Biological Activity towards Coxsackievirus B3 Nancy” (Molecules, 2020).
# Like-named read-outs stand apart in the source and are kept apart here.
# Tests used:
# Type in all cases: cell-based
# [1] = in vitro; conditions: for CC50 at 24 h: African green monkey; for CC50 at 72 h: dog
# Method: The microtetrazolium test (MTT) was used to study the cytotoxicity of the compounds [24]. The experiment was repeated three times. Vero cells were seeded in 96-well plates in Eagles minimal essential medium (MEM) supplemented with 10% FBS. After 24 h, the media was removed, and the wells were washed with saline. Compounds were dissolved in DMSO, and a series of three-fold dilutions of each compound and pleconaril (1000-4 µg/mL) in MEM without FBS were prepared and added to the cells in quadriplicates (200 µL per well). The maximal concentration of DMSO was 0.5% MEM with 0.5% DMSO and was added to cell control wells. Cells were incubated for 24 h at 37 °C in 5% CO2 in the presence of the dissolved compounds. The cells were then washed with saline, and a solution of 3-(4,5-dimethylthiazolyl-2) 2,5-diphenyltetrazolium bromide (ICN Biochemicals Inc., Aurora, OH, USA) (0.5 µg/mL) in MEM was added to the wells (100 µL per well). After 2 h of incubation at 37 °C in 5% CO2, the supernatant from wells was discarded, and the formazan residue was dissolved in DMSO (100 µL per well). The optical density of cells was then measured on a Victor 21,440 multifunctional reader (Perkin Elmer, Turku, Finland) at a wavelength of 535 nm and plotted against the concentration of the compounds to generate the dose–response curve. The 50% cytotoxic dose (CC50) of each compound (i.e., the compound concentration that causes the death of 50% of cells in a culture, or decreases the optical density twice as compared to the control wells) was calculated using four-parameter logistic nonlinear regression model. For some compounds (35a and 35b) cytotoxicity towards MDCK cell line was determined using the procedure above, but the cells were exposed to compounds for 72 h.
# [2] = system: coxsackievirus B3 strain Nancy; assay: Viral yield reduction assay against CVB3 in Vero cells; conditions: for IC50: Vero cells, viral yield reduction, MOI 0.01, 24 h, read-out: IC50 towards CVB3
# [3] = system: influenza virus A/Puerto Rico/8/34 (H1N1); assay: Antiviral activity against IAV, hemagglutination test in MDCK cells; conditions: for IC50: MDCK cells, hemagglutination test, 72 h, read-out: IC50 Towards IAV
Molecule,CC50 at 24 h [1] [µM],IC50 ([2]; Enterovirus B) [µM],other results
"CCOC(=O)c1cc(CCCSc2ccc(-c3noc(C(F)(F)F)n3)cc2C)on1 [Compound 6a, 3-(3-Methyl-4-((3-(3-carbethoxy-isoxazol-5-yl)propyl)thio)phenyl)-5-(trifluoromethyl)-1,2,4-oxadia-zole]",485 ± 20.1,21 ± 1.5,–
"Cc1cc(CCCSc2ccc(-c3noc(C(F)(F)F)n3)cc2C)on1 [Compound 6b, 3-(3-Methyl-4-((3-(3-methylisoxazol-5-yl)propyl)thio)phenyl)-5-(trifluoromethyl)-1,2,4-oxadiazole]",> 2610,15.6 ± 1.4,–
"Cc1cc(-c2noc(C(F)(F)F)n2)ccc1SCCCc1cc(C(=O)N(C)C)no1 [Compound 7, N,N-dimethyl-5-(3-((2-methyl-4-(5-(trifluoromethyl)-1,2,4-oxadiazol-3-yl)phenyl)thio)propyl)isoxa-zole-3-carboxamide]",> 2270,18.6 ± 1.3,–
"CCOC(=O)c1cc(CCC(=O)Oc2ccc(-c3noc(C(F)(F)F)n3)cc2C)on1 [Compound 12a, Ethyl 5-(3-(2-methyl-4-(5-(trifluoromethyl)-1,2,4-oxadiazol-3-yl)phenoxy)-3-oxopropyl)-isoxazole-3-carboxylate]",683 ± 30.4,9.1 ± 0.8,–
"Cc1cc(CCC(=O)Oc2ccc(-c3noc(C(F)(F)F)n3)cc2C)on1 [Compound 12b, 2-Methyl-4-(5-(trifluoromethyl)-1,2,4-oxadiazol-3-yl)phenyl 3-(3-methylisoxazol-5-yl)propanoate]",464 ± 30.3,13.1 ± 0.9,–
"CCOC(=O)c1cc(CCC(=O)Nc2ccc(-c3noc(C(F)(F)F)n3)cc2C)on1 [Compound 20a, Ethyl 5-(3-((2-methyl-4-(5-(trifluoromethyl)-1,2,4-oxadiazol-3-yl)phenyl)amino)-3-oxopropyl)isoxa-zole-3-carboxylate]",1720 ± 70.5,18.2 ± 1.6,–
"Cc1cc(CCC(=O)Nc2ccc(-c3noc(C(F)(F)F)n3)cc2C)on1 [Compound 20b, N-(2-Methyl-4-(5-(trifluoromethyl)-1,2,4-oxadiazol-3-yl)phenyl)-3-(3-methylisoxazol-5-yl)propan-amide]",1740 ± 120,76.2 ± 5.3,–
"Cc1cc(-c2noc(C(F)(F)F)n2)ccc1NC(=O)CCc1cc(C(=O)N(C)C)no1 [Compound 21, N,N-dimethyl-5-(3-((2-methyl-4-(5-(trifluoromethyl)-1,2,4-oxadiazol-3-yl)phenyl)amino)-3-oxopro-pyl)isoxazole-3-carboxamide]",1690 ± 70.7,6.8,–
"Cc1cc(-c2noc(C(F)(F)F)n2)ccc1N1CCN(c2cc(C(=O)N(C)C)no2)CC1 [Compound 28a, N,N-Dimethyl-5-(4-(2-methyl-4-(5-(trifluoromethyl)-1,2,4-oxadiazol-3-yl)phenyl)piperazin-1-yl)iso-xazole-3-carboxamide]",1870 ± 90.4,9.1 ± 0.7,–
"Cc1cc(CN2CCN(c3ccc(-c4noc(C(F)(F)F)n4)cc3C)CC2)on1 [Compound 28b, 3-(3-Methyl-4-(4-((3-methylisoxazol-5-yl)methyl)piperazin-1-yl)phenyl)-5-(trifluoromethyl)-1,2,4-oxadiazole]",2460 ± 171,41.7 ± 2.1,–
"CCOC(=O)c1cc(N2CCN(c3ccc(-c4noc(C(F)(F)F)n4)cc3C)CC2)on1 [Compound 28c, Ethyl 5-(4-(2-methyl-4-(5-(trifluoromethyl)-1,2,4-oxadiazol-3-yl)phenyl)piperazin-1-yl)isoxazole-3-carboxylate]",~53.2,48.7 ± 4.4,–
"Cc1cc(-c2noc(C(F)(F)F)n2)ccc1N1CCN(C(=O)c2cc(-c3ccccc3)no2)CC1 [Compound 35a, (4-(2-Methyl-4-(5-(trifluoromethyl)-1,2,4-oxadiazol-3-yl)phenyl)piperazin-1-yl)(3-phenylisoxazol--5-yl)methanone]",1520 ± 70.3,> 620,CC50 at 72 h [1]: 1450 ± 102 µM; activity against the influenza virus A (in words) [3]: inactive; IC50 [3]: > 493 µM; activity towards CVB3 (in words) [2]: inactive
"Cc1cc(-c2noc(C(F)(F)F)n2)ccc1N1CCN(C(=O)c2c(-c3ccccc3)noc2C)CC1 [Compound 35b, (5-Methyl-3-phenylisoxazol-4-yl)(4-(2-methyl-4-(5-(trifluoromethyl)-1,2,4-oxadiazol-3-yl)phenyl)pi-perazin-1-yl)methanone]",2010 ± 121,16.1 ± 1.1,CC50 at 72 h [1]: > 604 µM; activity against the influenza virus A (in words) [3]: inactive; IC50 [3]: > 604 µM
Cc1cc(CCCOc2c(C)cc(-c3noc(C(F)(F)F)n3)cc2C)on1 [Pleconaril],2400 ± 160,18.4 ± 1.5,–
"Methyl 5-(4-(2-methyl-4-(5-(trifluoromethyl)-1,2,4-oxadiazol-3-yl)phenyl)piperazin-1-yl)-isoxazole--3-carboxylate [Compound 28d]",–,–,IC50 [2]: 3.9 ± 0.3 µM
